# Test results from ChEMBL document CHEMBL4422610, “HDAC as onco target: Reviewing the synthetic approaches with SAR study of their inhibitors” (Eur J Med Chem, 2018).
# pIC50: −log10 of the molar value.
# How the values were obtained:
# [1] = biological target: T1, Protein deacetylase HDAC6 (Homo sapiens, UniProt Q9UBN7); assay: Inhibition of recombinant full-length human HDAC6 expressed in baculovirus expression system using FAM-RHKK(Ac)-H2 as substrate measured by electrophoretic mobility shift assay
# T1 sequence (Q9UBN7 whole entry): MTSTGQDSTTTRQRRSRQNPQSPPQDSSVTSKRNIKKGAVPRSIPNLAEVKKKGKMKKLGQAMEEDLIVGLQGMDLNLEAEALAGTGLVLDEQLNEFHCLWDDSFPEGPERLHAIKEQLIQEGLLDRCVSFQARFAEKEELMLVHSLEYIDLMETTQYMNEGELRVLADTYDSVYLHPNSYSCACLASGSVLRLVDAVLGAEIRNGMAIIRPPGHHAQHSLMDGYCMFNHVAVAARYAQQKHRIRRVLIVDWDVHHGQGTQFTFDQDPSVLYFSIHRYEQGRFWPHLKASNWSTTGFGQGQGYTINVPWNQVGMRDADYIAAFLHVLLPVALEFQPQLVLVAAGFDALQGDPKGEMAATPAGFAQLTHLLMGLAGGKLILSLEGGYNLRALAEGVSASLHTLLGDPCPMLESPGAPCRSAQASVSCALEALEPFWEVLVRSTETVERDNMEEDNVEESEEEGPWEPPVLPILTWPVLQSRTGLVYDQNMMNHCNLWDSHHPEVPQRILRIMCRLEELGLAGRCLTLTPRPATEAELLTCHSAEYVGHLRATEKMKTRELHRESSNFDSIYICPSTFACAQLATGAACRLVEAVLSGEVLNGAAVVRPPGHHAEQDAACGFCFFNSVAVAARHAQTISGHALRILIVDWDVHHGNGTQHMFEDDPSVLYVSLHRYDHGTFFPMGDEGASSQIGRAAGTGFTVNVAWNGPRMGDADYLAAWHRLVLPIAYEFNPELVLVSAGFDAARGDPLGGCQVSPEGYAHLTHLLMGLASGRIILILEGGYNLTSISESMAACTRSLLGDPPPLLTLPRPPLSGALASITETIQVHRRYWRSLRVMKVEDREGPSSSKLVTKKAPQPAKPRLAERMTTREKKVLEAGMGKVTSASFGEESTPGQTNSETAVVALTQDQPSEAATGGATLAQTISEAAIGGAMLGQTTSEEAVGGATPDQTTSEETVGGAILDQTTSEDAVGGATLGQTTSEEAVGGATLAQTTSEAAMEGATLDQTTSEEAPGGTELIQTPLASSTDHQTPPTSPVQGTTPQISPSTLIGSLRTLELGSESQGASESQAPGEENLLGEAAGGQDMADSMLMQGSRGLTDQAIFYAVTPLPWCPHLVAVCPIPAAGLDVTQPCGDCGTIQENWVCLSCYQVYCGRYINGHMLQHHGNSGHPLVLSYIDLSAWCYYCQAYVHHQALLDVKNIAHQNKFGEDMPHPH
# Histone deacetylase 1 [2] = biological target: T2, Histone deacetylase 1 (Homo sapiens, UniProt Q13547); assay: Inhibition of HDAC1 (unknown origin) using Ac-peptide as substrate preincubated for 15 mins followed by substrate addition and measured after 60 mins by fluorescence assay
# T2 sequence (Q13547 whole entry): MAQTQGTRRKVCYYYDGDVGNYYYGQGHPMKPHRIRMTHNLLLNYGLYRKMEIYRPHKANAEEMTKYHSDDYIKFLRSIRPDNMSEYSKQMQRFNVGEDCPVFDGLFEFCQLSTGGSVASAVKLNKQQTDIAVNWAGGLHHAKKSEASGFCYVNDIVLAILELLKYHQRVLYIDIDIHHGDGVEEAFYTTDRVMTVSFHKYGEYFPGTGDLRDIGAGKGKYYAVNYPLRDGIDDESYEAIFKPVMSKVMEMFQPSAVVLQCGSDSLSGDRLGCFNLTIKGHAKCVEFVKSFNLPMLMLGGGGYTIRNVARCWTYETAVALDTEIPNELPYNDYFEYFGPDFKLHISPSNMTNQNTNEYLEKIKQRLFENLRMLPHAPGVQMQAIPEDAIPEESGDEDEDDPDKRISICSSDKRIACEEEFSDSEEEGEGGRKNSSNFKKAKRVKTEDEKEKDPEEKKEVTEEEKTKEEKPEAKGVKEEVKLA
# Histone deacetylase 1 [3] = biological target: T2, Histone deacetylase 1; assay: Inhibition of GST-tagged HDAC1 (unknown origin) expressed in insect cells using poly (Glu, Tyr) 4:1 as substrate measured after 15 mins in presence of [gamma-33P]ATP by Topcount method
# Histone deacetylase 4 = Histone deacetylase 4 (Homo sapiens, UniProt P56524); assay: Inhibition of human HDAC4 using fluorogenic HDAC substrate
# Sequence of Histone deacetylase 4 (P56524 whole entry): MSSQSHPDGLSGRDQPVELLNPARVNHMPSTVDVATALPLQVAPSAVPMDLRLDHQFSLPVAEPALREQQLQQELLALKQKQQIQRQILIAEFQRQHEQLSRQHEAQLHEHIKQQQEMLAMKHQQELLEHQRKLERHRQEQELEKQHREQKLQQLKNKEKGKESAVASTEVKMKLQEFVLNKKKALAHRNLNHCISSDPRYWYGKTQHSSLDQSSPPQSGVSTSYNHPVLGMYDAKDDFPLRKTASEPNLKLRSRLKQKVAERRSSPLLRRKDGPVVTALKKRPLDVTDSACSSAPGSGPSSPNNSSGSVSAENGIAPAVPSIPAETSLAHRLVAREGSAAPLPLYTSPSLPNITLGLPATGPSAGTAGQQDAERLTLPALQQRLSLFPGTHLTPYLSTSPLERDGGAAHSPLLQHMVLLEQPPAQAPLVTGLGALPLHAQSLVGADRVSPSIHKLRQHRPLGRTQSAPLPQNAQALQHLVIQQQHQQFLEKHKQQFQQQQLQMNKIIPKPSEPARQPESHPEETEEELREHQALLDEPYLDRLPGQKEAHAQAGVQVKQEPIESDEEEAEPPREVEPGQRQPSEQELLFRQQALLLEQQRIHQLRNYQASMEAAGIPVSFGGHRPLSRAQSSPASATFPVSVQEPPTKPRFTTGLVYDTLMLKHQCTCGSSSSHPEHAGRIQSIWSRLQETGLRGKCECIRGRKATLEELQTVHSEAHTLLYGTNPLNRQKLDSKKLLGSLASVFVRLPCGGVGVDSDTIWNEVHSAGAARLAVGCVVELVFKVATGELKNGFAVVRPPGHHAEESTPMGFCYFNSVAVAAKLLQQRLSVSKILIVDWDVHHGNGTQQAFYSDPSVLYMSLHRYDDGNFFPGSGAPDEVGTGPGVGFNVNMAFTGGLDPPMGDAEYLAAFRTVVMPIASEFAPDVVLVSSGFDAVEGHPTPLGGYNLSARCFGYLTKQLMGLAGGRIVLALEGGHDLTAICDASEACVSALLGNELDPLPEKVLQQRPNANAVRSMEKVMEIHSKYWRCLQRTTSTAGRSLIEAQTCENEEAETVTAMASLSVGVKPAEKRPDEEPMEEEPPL
# Histone deacetylase 5 = Histone deacetylase 5 (Homo sapiens, UniProt Q9UQL6); assay: Inhibition of human HDAC5 using fluorogenic HDAC substrate
# Sequence of Histone deacetylase 5 (Q9UQL6 whole entry): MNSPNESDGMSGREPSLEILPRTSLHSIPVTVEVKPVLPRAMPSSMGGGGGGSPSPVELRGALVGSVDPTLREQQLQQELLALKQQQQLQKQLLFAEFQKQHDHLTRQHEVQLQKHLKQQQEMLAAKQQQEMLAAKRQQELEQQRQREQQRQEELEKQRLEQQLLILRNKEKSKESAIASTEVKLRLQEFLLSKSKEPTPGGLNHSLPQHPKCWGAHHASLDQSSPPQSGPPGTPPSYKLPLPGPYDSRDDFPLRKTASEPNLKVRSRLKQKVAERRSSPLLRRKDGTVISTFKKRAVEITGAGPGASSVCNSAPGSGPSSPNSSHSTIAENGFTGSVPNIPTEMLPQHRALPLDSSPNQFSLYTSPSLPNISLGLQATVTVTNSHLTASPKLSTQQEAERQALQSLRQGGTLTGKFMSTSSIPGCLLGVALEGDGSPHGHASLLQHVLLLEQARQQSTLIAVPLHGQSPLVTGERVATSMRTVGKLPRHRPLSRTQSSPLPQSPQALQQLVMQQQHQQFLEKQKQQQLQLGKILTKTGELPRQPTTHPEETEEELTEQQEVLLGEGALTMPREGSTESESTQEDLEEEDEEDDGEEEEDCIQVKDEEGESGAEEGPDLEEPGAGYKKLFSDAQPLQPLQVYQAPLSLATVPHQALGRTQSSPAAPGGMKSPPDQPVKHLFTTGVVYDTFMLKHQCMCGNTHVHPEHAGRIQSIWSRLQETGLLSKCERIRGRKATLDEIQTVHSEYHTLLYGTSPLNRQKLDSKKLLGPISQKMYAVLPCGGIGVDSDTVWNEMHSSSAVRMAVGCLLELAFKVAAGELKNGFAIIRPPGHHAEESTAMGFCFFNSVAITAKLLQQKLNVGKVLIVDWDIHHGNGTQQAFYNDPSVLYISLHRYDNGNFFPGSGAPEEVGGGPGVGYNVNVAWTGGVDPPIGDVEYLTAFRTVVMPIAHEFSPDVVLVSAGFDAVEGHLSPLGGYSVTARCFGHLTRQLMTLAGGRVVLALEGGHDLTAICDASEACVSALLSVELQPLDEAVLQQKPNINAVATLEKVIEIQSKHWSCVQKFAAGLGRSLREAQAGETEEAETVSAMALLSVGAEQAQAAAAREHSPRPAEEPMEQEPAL
# Histone deacetylase 11 = biological target: T3, Histone deacetylase 11 (Homo sapiens, UniProt Q96DB2); assay: Inhibition of human HDAC11 using fluorogenic HDAC substrate
# T3 sequence (Q96DB2 whole entry): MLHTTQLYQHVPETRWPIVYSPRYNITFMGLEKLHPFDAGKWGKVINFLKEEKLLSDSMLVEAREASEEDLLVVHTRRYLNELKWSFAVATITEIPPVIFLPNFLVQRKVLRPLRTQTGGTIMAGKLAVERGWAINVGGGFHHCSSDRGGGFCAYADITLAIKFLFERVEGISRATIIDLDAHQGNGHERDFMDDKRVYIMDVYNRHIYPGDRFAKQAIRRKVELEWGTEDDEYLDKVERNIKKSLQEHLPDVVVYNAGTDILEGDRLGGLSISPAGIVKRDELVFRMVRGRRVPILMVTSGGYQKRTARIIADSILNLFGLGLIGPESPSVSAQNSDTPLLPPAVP
# Histone deacetylase 1 [4] = biological target: T2, Histone deacetylase 1; assay: Inhibition of human HDAC1 using fluorogenic HDAC substrate
# [5] = biological target: T1, Protein deacetylase HDAC6; assay: Inhibition of human HDAC6 using fluorogenic HDAC substrate
# [6] = biological target: T4, Polyamine deacetylase HDAC10 (Homo sapiens, UniProt Q969S8); assay: Inhibition of human HDAC10 using fluorogenic HDAC substrate
# T4 sequence (Q969S8 whole entry): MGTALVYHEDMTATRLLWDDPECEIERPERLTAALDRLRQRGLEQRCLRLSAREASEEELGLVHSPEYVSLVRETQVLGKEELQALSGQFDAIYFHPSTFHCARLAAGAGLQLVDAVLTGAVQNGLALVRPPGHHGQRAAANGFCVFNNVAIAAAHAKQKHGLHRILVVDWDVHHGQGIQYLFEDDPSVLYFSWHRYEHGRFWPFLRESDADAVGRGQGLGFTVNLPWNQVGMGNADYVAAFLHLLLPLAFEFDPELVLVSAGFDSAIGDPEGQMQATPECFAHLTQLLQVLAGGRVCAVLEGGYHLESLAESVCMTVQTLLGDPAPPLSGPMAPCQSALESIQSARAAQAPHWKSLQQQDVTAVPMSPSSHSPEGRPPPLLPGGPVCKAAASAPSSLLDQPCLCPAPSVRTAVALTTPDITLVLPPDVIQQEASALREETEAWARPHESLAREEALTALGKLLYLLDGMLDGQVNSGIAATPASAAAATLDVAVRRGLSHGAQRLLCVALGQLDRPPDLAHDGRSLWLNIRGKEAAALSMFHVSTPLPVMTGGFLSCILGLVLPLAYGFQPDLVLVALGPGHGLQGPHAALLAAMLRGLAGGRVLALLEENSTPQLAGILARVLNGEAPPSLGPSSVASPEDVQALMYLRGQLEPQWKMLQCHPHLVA
# Histone deacetylase 9 = Histone deacetylase 9 (Homo sapiens, UniProt Q9UKV0); assay: Inhibition of human HDAC9 using fluorogenic HDAC substrate
# Sequence of Histone deacetylase 9 (Q9UKV0 whole entry): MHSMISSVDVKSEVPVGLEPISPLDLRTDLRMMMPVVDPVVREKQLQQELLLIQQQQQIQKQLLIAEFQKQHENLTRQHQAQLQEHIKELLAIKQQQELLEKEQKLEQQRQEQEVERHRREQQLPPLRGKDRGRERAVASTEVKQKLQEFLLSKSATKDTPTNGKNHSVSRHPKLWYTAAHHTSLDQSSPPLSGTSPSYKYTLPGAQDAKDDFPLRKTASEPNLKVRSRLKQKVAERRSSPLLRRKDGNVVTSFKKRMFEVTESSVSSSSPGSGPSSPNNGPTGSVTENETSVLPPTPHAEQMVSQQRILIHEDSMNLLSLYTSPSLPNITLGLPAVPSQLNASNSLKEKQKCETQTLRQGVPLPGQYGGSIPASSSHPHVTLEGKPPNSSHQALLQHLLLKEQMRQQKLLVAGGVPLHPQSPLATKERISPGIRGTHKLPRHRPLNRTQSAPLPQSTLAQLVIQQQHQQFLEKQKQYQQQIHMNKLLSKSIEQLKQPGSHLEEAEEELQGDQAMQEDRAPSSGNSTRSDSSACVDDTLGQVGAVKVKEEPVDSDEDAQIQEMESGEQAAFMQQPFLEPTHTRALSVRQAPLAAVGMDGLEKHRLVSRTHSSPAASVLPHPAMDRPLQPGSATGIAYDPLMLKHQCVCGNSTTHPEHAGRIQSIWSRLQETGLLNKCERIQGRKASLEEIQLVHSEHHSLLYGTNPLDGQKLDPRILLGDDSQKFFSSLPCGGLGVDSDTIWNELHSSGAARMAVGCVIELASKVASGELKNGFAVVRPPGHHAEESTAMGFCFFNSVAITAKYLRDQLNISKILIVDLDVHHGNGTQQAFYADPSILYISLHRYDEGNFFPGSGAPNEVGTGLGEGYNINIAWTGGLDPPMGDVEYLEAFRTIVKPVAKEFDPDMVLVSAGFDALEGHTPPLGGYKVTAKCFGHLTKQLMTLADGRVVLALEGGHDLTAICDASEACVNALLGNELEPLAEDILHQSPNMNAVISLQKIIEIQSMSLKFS
# Histone deacetylase 8 = biological target: T5, Histone deacetylase 8 (Homo sapiens, UniProt Q9BY41); assay: Inhibition of human HDAC8 using fluorogenic HDAC substrate
# T5 sequence (Q9BY41 whole entry): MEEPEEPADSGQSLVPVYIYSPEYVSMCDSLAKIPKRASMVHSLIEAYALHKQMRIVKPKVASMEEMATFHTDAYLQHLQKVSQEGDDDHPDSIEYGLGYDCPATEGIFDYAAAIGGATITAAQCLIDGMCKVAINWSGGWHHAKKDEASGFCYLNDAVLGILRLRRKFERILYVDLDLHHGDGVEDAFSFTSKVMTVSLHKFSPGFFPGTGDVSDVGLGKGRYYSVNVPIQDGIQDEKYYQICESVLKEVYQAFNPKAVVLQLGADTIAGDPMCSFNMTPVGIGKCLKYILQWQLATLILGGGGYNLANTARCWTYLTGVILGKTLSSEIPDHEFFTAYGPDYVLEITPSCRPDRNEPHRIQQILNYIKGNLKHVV
# Histone deacetylase 2 = Histone deacetylase 2 (Homo sapiens, UniProt Q92769); assay: Inhibition of human HDAC2 using fluorogenic HDAC substrate
# Sequence of Histone deacetylase 2 (Q92769 whole entry): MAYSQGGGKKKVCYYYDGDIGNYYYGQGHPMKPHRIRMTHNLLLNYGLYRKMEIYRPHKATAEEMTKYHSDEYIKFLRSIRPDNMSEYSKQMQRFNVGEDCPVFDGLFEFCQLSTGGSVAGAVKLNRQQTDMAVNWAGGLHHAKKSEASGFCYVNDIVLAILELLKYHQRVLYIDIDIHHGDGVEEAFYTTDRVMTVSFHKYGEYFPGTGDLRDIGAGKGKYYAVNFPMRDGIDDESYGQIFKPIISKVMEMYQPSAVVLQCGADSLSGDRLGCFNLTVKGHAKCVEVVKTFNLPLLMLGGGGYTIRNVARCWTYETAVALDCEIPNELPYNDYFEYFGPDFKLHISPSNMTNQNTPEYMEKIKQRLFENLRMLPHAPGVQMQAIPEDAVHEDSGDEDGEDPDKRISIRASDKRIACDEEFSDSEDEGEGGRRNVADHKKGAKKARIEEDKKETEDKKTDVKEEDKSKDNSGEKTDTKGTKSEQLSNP
# Histone deacetylase 3 = Histone deacetylase 3 (Homo sapiens, UniProt O15379); assay: Inhibition of human HDAC3 using fluorogenic HDAC substrate
# Sequence of Histone deacetylase 3 (O15379 whole entry): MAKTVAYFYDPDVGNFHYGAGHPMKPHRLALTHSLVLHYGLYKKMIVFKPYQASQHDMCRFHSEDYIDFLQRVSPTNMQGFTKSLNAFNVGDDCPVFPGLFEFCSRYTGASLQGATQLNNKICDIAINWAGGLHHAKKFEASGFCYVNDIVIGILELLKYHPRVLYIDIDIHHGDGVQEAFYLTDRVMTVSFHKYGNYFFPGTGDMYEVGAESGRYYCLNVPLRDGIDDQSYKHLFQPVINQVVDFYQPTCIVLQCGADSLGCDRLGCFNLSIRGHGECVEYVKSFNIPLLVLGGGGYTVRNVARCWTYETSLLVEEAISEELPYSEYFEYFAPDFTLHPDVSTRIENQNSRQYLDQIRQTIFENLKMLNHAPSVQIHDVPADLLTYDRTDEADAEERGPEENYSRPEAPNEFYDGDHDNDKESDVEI
# Zea mays = assay: Inhibition of maize HD2 at 5 uM using [3H]acetate-labelled histone as substrate by liquid scintillation counting method relative to control
smiles,measurement,setting,value
COc1ccc(CN2CCC3(CCc4ccc(C(=O)NO)cc4C3)C2=O)cc1 (configuration not stated),pIC50,[1],≥ 7.00
O=C(CCCCCCCOc1ccccc1N1C(=O)CSC1c1cccc(Br)c1)NO (configuration not stated),pIC50,Histone deacetylase 1 [2],7.54
CC(C)c1[nH]c2ccccc2c1C1CCCN(Cc2ccc(/C=C/C(=O)NO)cc2)C1 (configuration not stated),pIC50,Histone deacetylase 1 [3],8.22
O=C(NO)c1ccc2c(c1)CC1(CC2)CCN(Cc2cc(Cl)ccc2Cl)C1=O (configuration not stated),pIC50,[1],6.30 to 7.00
O=C(NO)c1ccc(CN2c3ccccc3C3C2CCS3(=O)=O)cc1 (configuration not stated),pIC50,Histone deacetylase 4,6.22
same,pIC50,Histone deacetylase 5,6.40
same,pIC50,Histone deacetylase 11,4.77
same,pIC50,Histone deacetylase 1 [4],4.92
same,pIC50,[5],8.09
same,pIC50,[6],4.89
same,pIC50,Histone deacetylase 9,6.70
same,pIC50,Histone deacetylase 8,5.72
same,pIC50,Histone deacetylase 2,< 4.52
O=C(CCCCCCC(=O)Nc1ccccc1N1C(=O)CSC1c1cccc(Br)c1)NO (configuration not stated),pIC50,Histone deacetylase 1 [2],7.28
O=C(NO)c1ccc(Cn2c3c(c4cc(F)ccc42)CSCC3)cc1,pIC50,Histone deacetylase 5,5.74
same,pIC50,Histone deacetylase 3,4.64
same,pIC50,[6],4.68
same,pIC50,Histone deacetylase 9,6.10
Cn1cc(C(=O)c2ccccc2)cc1CCC(=O)NO,inhibition,Zea mays,45%
O=C(NO)c1ccc2c(c1)CC1(CC2)CCN(Cc2ccncc2)C1=O (configuration not stated),pIC50,[1],< 6.30
CCc1n[nH]c(CC)c1CCN1CCCC1c1ccc(/C=C/C(=O)NO)cc1 (configuration not stated),pIC50,Histone deacetylase 1 [3],9.10
O=C(NO)c1ccc2c(c1)CC1(CC2)CCN(Cc2ccccc2OC(F)(F)F)C1=O (configuration not stated),pIC50,[1],6.30 to 7.00
Cn1cc(C(=O)c2ccc(Cl)cc2)cc1/C=C/C(=O)NO,inhibition,Zea mays,87%
O=C(CCCCOc1ccccc1N1C(=O)CSC1c1cccc(Br)c1)NO (configuration not stated),pIC50,Histone deacetylase 1 [2],6.28
O=C(NO)c1ccc2c(c1)CC1(CC2)CCN(Cc2ccc(OC(F)(F)F)cc2)C1=O (configuration not stated),pIC50,[1],≥ 7.00
Cn1cc(C(=O)c2ccccc2)cc1/C=C/C(=O)NN,inhibition,Zea mays,0.2%
O=C(NO)c1ccc(Cn2c3c(c4cc(F)ccc42)C[S+]([O-])CC3)cc1 (configuration not stated),pIC50,Histone deacetylase 4,5.92
same,pIC50,Histone deacetylase 5,5.89
same,pIC50,Histone deacetylase 3,4.62
same,pIC50,Histone deacetylase 11,6.30
same,pIC50,Histone deacetylase 1 [4],5.03
same,pIC50,[5],8.03
same,pIC50,[6],5.19
same,pIC50,Histone deacetylase 9,6.30
same,pIC50,Histone deacetylase 8,5.62
same,pIC50,Histone deacetylase 2,< 4.52
Cc1ccc(C(=O)c2cc(/C=C/C(=O)NO)n(C)c2)cc1,inhibition,Zea mays,86.4%
Cc1[nH]c2ccccc2c1C1CCCN(Cc2ccc(/C=C/C(=O)NO)cc2)C1 (configuration not stated),pIC50,Histone deacetylase 1 [3],8.22
O=C(NO)c1ccc(CN2c3cc(C(F)(F)F)ccc3CCC[C@@H]3CCCC[C@H]32)cc1,pIC50,Histone deacetylase 5,4.66
same,pIC50,Histone deacetylase 3,4.74
same,pIC50,Histone deacetylase 11,6.09
same,pIC50,Histone deacetylase 1 [4],5.06
same,pIC50,[5],7.96
same,pIC50,[6],5.03
same,pIC50,Histone deacetylase 9,< 4.52
same,pIC50,Histone deacetylase 8,5.70
same,pIC50,Histone deacetylase 2,4.80
